Source: PMC8639922, “KSHV transactivator-derived small peptide traps coactivators to attenuate MYC and inhibits leukemia and lymphoma cell growth” (Communications Biology, 2021)
Square brackets hold non-standard residues; d marks the D form. Peptide text beside a SMILES is read from it. Orn = NCCC[C@H](N)C(=O)O; βAla = NCCC(=O)O

What was measured:
MYC expression in BC-1 = test: MYC qRT-PCR; assay type: cell-based, human; conditions: BC-1, 24 μM, 24 h
Method: (§1) As a next step, we sought to identify the cellular pathways that are impacted by VGN50. For this, RNA-seq analysis was conducted on total RNA isolated from cells harvested after 24 h of incubation with VGN50. Mutant peptide was used as a comparison to identify differentially regulated genes by VGN50 (Fig. 4a). […] Furthermore, we confirmed the result by RT-qPCR that the expression of MYC itself was decreased in both BCBL-1 and BC-1 cells after treatment with VGN50, but not mutant peptide (Fig. 4c).
(§2) Fig. 4 VGN50 target identification with RNA-sequencing. a Total RNA-sequencing. BCBL-1 cells were treated with either VGN50 or mutant peptide for 24 h (24 μM, n = 3). Untreated cells were used as a negative control. RNA-sequencing datasets from VGN50-peptide-treated samples were compared with that from mutant-peptide-treated samples, and differentially regulated genes were depicted as a volcano plot (left panel). b Gene Set Enrichment Analyses (GSEA). […] Peptide-treated samples were used for qRT-PCR analysis in duplicate and confirmed MYC down-regulation. (VGN50, 24 μM, 24 h post treatment) d Direct target identification with SLAM-seq. The experimental scheme is shown in the upper section of the panel. VGN50 or mutant peptide (24 μM final concentration) were added to BC-1 or BCBL-1 cells 30 mins prior to incubation with 4sU, and RNA was labeled for 1 h in the presence of each peptide. The C/T converted RNA-species were compared with mock-treated samples and depicted as scatter plots. Each treatment was performed in duplicate and nascent transcripts with p-values <0.05 are indicated as red dots. e Integrative Genomics Viewer (IGV). Both non-T/C converted and converted sequence reads were visualized with the IGV, and a snapshot of the MYC 3′-UTR region is presented. […] The strategy of gene selection for CSAN is described on the left-hand side of the panel. […] The number of common transcriptional regulators are shown in the Venn diagram and selected transcription and co-regulatory protein names are also included. The complete list of gene names is presented in Supplementary Fig. 3.

MYC expression in BCBL-1 = test: MYC qRT-PCR; assay type: cell-based, human; conditions: BCBL-1, 24 μM, 24 h
Method: as §1, §2

KSHV PAN RNA in BCBL-1 = test: KSHV PAN RNA qRT-PCR (reactivation); assay type: cell-based; conditions: BCBL-1, 16 μM, 24 h
Method: (§3) Because VGN50 is derived from the KSHV transactivator sequence, we next examined if VGN50 can inhibit KSHV lytic replication by competitively blocking the coactivator binding to K-Rta. To study this, we used the TREx-K-Rta BCBL-1 cell line, in which we can trigger the expression of exogenous Flag-tagged K-Rta in a doxycycline (Dox) inducible manner. TREx-K-Rta BCBL-1 cells were treated with […] VGN50 or mutant peptide, with or without Dox induction. We used approximately one-half of the IC50 concentration of VGN50 to treat the TREx-K-Rta BCBL-1 cells in order to avoid cell toxicity effects that would non-specifically decrease viral gene expression. KSHV gene expression was profiled with a KSHV genome-wide PCR array, using ribosomal rRNA for normalization and as an internal control. Fold activation relative to the uninduced Mut-P-treated sample (not induced: Dox -) was determined and a heatmap for KSHV lytic gene expression was generated (Fig. 3a). […] Immunoblotting was used to confirm the induction of lytic replication by Dox based on exogenous K-Rta protein (Flag-K-Rta) and the expression of two other KSHV lytic proteins (ORF57 and K-bZIP) along with actin and KSHV LANA protein as controls for equal loading and similar viral copy numbers in samples, respectively (Fig. 3b).
(§4) Fig. 3 Effects of VGN50 on KSHV gene transcription and VGN50 binding with SWI/SNF components. a KSHV qRT-PCR array analysis was used to study effects of VGN50 on KSHV gene transcription in a genome-wide manner. Uninduced (−; no doxycycline added) or dox-induced (+; 1 μg/ml) cells were treated with VGN50 or the mutant peptide (Mut-P) at a concentration of 24 μM. Samples were collected at 24 h post-treatment. Expression in uninduced cells was set as 1 for each viral gene and expression shown as fold activation relative to no-Dox samples. Selected cellular genes were also included in the PCR array for comparison. 18S ribosomal RNA was used as an internal control. b KSHV protein expression. Immunoblotting was performed to confirm both endogenous and exogenous K-Rta expression before (not induced) and after induction by Dox treatment (Dox-induced). Latent KSHV protein LANA and actin were used as controls for KSHV copy number (LANA) and loading (actin), respectively. Protein samples were collected 48-h post Dox incubation. c KSHV reactivation by VGN50 incubation. BCBL-1 and BC-1 cell lines were treated with VGN50 (16 μM concentration) and total RNA harvested at 24 h post treatment. KSHV PAN RNA expression was examined by qRT-PCR and relative expression over 18S rRNA is shown. Data are presented as mean ± SD (n = 3). d Purification of recombinant SWI/SNF components. SDS-PAGE analysis of five SWI/SNF components individually prepared from baculovirus-infected Sf9 cells. e A schematic illustration of ELISA assay to evaluate VGN50 and SWI/SNF interaction. f Analysis of VGN50 binding to SWI/SNF components by ELISA. Increasing concentrations of biotin-conjugated VGN50 or Mut-P were incubated in duplicate in an ELISA plate coated with each SWI/SNF component. Peptide binding measured as OD values at 450 nm are shown. Mean OD values were compared between the VGN50 and Mut-P in each concentration using unpaired t-test. **p < 0.01, *p < 0.05, NS no significance. Data are presented as mean ± SD with duplicated samples and repeated three times with different purified protein preps.

KSHV PAN RNA in BC-1 = test: KSHV PAN RNA qRT-PCR (reactivation); assay type: cell-based; conditions: BC-1, 16 μM, 24 h
Method: as §3, §4

CC(C)C[C@H](NC(=O)CCNC(=O)[C@H](CCCNC(=N)N)NC(=O)[C@H](CCCNC(=N)N)NC(=O)[C@H](CCCNC(=N)N)NC(=O)[C@H](CCCN)NC(=O)[C@H](CCCNC(=N)N)NC(=O)[C@H](CCCNC(=N)N)NC(=O)[C@H](CCCCN)NC(=O)[C@H](CCCCN)NC(=O)[C@H](N)CCCNC(=N)N)C(=O)N[C@@H](CO)C(=O)N[C@@H](CO)C(=O)N[C@@H](C)C(=O)N[C@@H](C)C(=O)N[C@@H](C)C(=O)NCC(=O)N[C@@H](CC(C)C)C(=O)N[C@@H](Cc1ccc(O)cc1)C(=O)N[C@@H](CCC(N)=O)C(=O)N[C@@H](CC(C)C)C(=O)N[C@@H](CC(=O)O)C(=O)N[C@H](C(=O)O)[C@@H](C)O [Mt-P] (H-[dR]KKRR[Orn]RRR[βAla]LSSAAAGLYQLDT-OH; N-terminus and C-terminus assumed)
C-myc 2^-(DCT) (MYC expression in BC-1; replicate 1): 9.403e-5 | C-myc 2^-(DCT) (MYC expression in BC-1; replicate 2): 9.337e-5 | C-myc 2^-(DCT) (MYC expression in BCBL-1; replicate 1): 9.038e-5 | C-myc 2^-(DCT) (MYC expression in BCBL-1; replicate 2): 8.988e-5 | KSHV PAN RNA relative expression over 18S rRNA (KSHV PAN RNA in BCBL-1; replicate 1): 0.0001238 | KSHV PAN RNA relative expression over 18S rRNA (KSHV PAN RNA in BCBL-1; replicate 2): 0.0001335 | KSHV PAN RNA relative expression over 18S rRNA (KSHV PAN RNA in BCBL-1; replicate 3): 0.0001325 | KSHV PAN RNA relative expression over 18S rRNA (KSHV PAN RNA in BC-1; replicate 1): 1.419e-5 | KSHV PAN RNA relative expression over 18S rRNA (KSHV PAN RNA in BC-1; replicate 2): 1.503e-5 | KSHV PAN RNA relative expression over 18S rRNA (KSHV PAN RNA in BC-1; replicate 3): 1.204e-5
